Legend:
[1] = target: T1, human delta opioid receptor (Homo sapiens, UniProt P41143); assay: [35S]GTPγS binding assay in CHO-hδ cell membranes; format: biochemical; conditions: hDOR GTPγS EC50, human delta opioid receptor GTPγS functional assay
T1 construct: purchased Receptor Biology, Inc. (Baltimore, Md.); host or cells: CHO cells expressing the human delta receptor (membranes)

[2] = target: T2, human mu opioid receptor (Homo sapiens, UniProt P35372); assay: [35S]GTPγS binding assay in CHO-hμ cell membranes; format: biochemical; conditions: inhibition relative to 1 uM DAMGO, read-out: hMOR GTPγS % I @10 μM
T2 construct: purchased Receptor Biology, Inc. (Baltimore, Md.); host or cells: CHO cells expressing the human mu receptor (membranes)
Procedure: CHO-hμ cell membranes are purchased from Receptor Biology, Inc. (Baltimore, Md.). About 10 mg/ml of membrane protein is suspended in 10 mM TRIS-HC pH 7.2, 2 mM EDTA, 10% sucrose.
Membranes are maintained at 4-8° C. 1 ml of membranes is added into 15 ml cold binding assay buffer. The assay buffer contains 50 mM HEPES, pH 7.6, 5 mM MgCl2, 100 mM NaCl, 1 mM DTT and 1 mM EDTA. The membrane suspension is homogenized with a Polytron 2 times and centrifuged at 3000 rpm for 10 min. The supernatant is then centrifuged at 18,000 rpm for 20 min. The pellet is saved in a tube and 10 ml assay buffer is added to the tube. The pellet and buffer are mixed with a Polytron.
The pellet membranes (20 μg/ml) are preincubated with SPA (10 mg/ml) at 25 C′ for 45 min in the assay buffer. The SPA (5 mg/ml) coupled with membranes (10 μg/ml) is then incubated with 0.5 nM [^35S]GTPgS in the same HEPES buffer containing 50 μM GDP in total volume of 200 μl. Increasing concentrations of receptor agonists are used to stimulate [^35S]GTPgS binding. The basal binding is tested in the absence of agonists and non-specific binding is tested in the present 10 μM unlabeled GTPγS. The data are analyzed on a Top counter.
% of Basal=(stimulate−non-specific)*100/(basal−non specific). % inhibition value values are calculated using a formula, % Inhibition=(% Basal of 1 uM DAMGO−% Basal of compound)*100/(% Basal of 1 uM DAMGO−100)

[3] = target: T3, Rat brain mu opioid receptor (Rattus norvegicus, UniProt P33535); assay: Rat brain mu opioid receptor binding assay ([3H]DAMGO); conditions: rMOR Ki
T3 construct: from tissue; host or cells: forebrain of male Sprague Dawley rats

[4] = system: mice; assay: Mouse Abdominal Irritant Test (MAIT); format: in vivo; conditions: @ 30 (dose printed in the cell)
Procedure: The procedure used was that described by Collier et al. (1968), with minor modifications. Thirty minutes after the administration of test drug, the animals received an i.p. injection of 5.5 mg/kg of acetylcholine bromide. The mice were then placed into large glass animal jars and were continuously observed for the first occurrence of a characteristic behavioral response (twisting and elongation of the body which extends throughout the hindlimbs) within the specified observation period of 10 minutes. […] Data % of Basal=(stimulate−non-specific)*100/(basal−non-specific). EC50 value values are calculated using a Prism program.

[5] = target: T4, Rat brain delta opioid receptor (Rattus norvegicus, UniProt P33533); assay: Rat brain delta opioid receptor binding; conditions: rDOR Ki
T4 construct: from tissue; host or cells: rat brain
T4 sequence (P33533 whole entry): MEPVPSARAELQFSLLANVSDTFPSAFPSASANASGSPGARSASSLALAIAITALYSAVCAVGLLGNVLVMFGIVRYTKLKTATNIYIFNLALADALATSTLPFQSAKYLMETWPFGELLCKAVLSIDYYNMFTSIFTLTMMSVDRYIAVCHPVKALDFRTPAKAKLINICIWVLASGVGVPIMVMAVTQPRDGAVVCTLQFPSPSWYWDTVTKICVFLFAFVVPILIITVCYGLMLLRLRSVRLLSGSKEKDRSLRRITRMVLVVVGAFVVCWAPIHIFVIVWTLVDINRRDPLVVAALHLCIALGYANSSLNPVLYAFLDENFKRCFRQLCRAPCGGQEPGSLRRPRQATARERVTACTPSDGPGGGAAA

T1 sequence (P41143 whole entry): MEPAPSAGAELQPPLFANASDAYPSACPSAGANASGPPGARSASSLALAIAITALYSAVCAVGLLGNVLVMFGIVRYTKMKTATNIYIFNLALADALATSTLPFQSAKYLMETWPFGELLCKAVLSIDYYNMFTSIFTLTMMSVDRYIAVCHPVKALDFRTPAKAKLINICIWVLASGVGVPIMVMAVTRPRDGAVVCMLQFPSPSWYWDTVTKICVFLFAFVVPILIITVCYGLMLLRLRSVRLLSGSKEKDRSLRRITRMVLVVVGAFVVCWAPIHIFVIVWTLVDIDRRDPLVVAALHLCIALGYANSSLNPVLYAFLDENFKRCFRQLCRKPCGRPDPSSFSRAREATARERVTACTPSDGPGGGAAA
T2 sequence (P35372 whole entry): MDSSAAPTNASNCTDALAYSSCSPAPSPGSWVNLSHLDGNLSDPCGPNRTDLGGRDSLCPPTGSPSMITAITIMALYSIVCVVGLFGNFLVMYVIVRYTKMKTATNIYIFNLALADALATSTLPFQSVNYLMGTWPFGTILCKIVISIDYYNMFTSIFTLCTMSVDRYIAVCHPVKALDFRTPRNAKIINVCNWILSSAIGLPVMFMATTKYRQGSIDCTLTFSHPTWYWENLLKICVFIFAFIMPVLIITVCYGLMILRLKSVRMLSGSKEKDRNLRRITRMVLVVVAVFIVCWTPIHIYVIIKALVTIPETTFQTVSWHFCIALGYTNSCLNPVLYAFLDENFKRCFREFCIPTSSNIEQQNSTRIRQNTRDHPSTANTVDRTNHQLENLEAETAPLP
T3 sequence (P33535 whole entry): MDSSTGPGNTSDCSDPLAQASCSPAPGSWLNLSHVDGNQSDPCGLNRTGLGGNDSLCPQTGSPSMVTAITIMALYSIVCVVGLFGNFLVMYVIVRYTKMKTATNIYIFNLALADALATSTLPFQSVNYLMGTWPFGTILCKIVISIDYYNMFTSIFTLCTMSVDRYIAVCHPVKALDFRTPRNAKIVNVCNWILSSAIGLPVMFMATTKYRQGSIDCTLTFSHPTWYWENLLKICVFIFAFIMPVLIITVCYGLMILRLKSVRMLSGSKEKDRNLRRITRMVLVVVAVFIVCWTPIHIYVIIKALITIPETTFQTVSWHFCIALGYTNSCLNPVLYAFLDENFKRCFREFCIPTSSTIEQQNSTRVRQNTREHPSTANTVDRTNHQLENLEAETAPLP

CCN(CC)C(=O)c1ccc2c(c1)Oc1ccccc1C2=C1CC2CCC(C1)N2Cc1ccoc1 [Compound 25, 9-(8-Furan-3-ylmethyl-8-aza-bicyclo[3.2.1]oct-3-ylidene)-9H-xanthene-3-carboxylic acid diethylamide]
EC50 [1]: 1.39 nM | inhibition at 10 µM [2]: 74% | Ki [3]: 879 nM | MAIT % I [4]: 30(@ 30) % | Ki [5]: 0.01 nM

— patent US7982042B2, “Thiozanthene derivatives as delta-opioid modulators” (priority 2003, dated 2011)
